Assay results taken from PMC9227918 (Toxins, 2022).

Key:
Type in all cases: in vitro ADME
[1] = Hepatic phase II metabolism (sulfation), human liver cytosol with PAPS; conditions: HPLC-QTOF-HRMS
[2] = Hepatic phase II metabolism (sulfation), horse liver cytosol with PAPS; conditions: horse cytosol compared with human cytosol (Figure 7b)
[3] = Hepatic phase I metabolism, incubation with human liver microsomes and NADPH-regenerating system; conditions: for main pI metabolite: human liver microsomes 5 mg/mL, 0.04 mg/mL PSD, 90 min, 37 °C, HPLC-DAD-Orbitrap-HRMS
[4] = Hepatic phase I metabolism, incubation with horse liver microsomes and NADPH-regenerating system; conditions: for identified pI metabolites: horse liver microsomes 5 mg/mL, 0.04 mg/mL PSD, 90 min, 37 °C, HPLC-Orbitrap-HRMS; for extent of pI transformation / metabolite formation: horse microsomes compared with human microsomes
[5] = Hepatic phase II metabolism (glucuronidation), human liver microsomes with UDPGA
[6] = Hepatic phase II metabolism (glucuronidation), horse liver microsomes with UDPGA; conditions: UDPGA 0.3 mM, 0.02 mg/mL PSD, 90 min, HPLC-Orbitrap-HRMS

SMILES: C[C@@H]1CC[C@H]2C(C)(C)[C@H](O)CC[C@]2(C)[C@@]12Cc1c(O)cc(CO)c(C=O)c1O2 [L-671, L-671,667]
- abundance of sulfate signals among the PSDs [1]: most abundant sulfate signals
- number of signals in the XIC of the sulfate (isomers) [1]: two signals
- conversion in sulfation experiments [2]: Opposite observations
- variation in potential pI metabolites ([3]; HPLC-Orbitrap-HRMS experiments, compared among the four PSDs): largest variation in potential pI metabolites
- identified pI metabolites [4]: L-671 [+O2–H2] could not be detected

SMILES: CC(=O)O[C@@H]1[C@H](OC(C)=O)C[C@@]2(C)[C@@H](CC[C@@H](C)[C@]23Cc2c(OC4O[C@H](C(=O)O)[C@@H](O)[C@H](O)[C@H]4O)cc(CO)c(C=O)c2O3)C1(C)C (stereo partly shown) [STBON D +GlcA]
- glucuronide (+GlcA) formation ([5]; human microsomes, UDPGA 0.3 mM, 0.02 mg/mL PSD, 90 min, HPLC-Orbitrap-HRMS): identified
- glucuronide (+GlcA) formation [6]: identified

SMILES: CC(=O)O[C@@H]1[C@H](OC(C)=O)C[C@@]2(C)[C@@H](CC[C@@H](C)[C@]23Cc2c(O)cc(CO)c(C=O)c2O3)C1(C)C [STBON D, stachybonoid D]
- conversion in glucuronidation experiments ([5]; human microsomes compared with horse microsomes, 90 min (Figure 7a)): higher signals for STBON D +GlcA and lower signals of the respective parental compound
- main pI metabolite [3]: oxidized metabolites ([+O])
- identified pI metabolites [4]: only the metabolites STBON D [+O–H2] and STBON D [+O] were identified

SMILES: C[C@@H]1CC[C@H]2C(C)(C)[C@H](O)CC[C@]2(C)[C@@]12Cc1c(O)cc(C=O)c(C=O)c1O2 [STDIAL, stachybotrydial]
- main pI metabolite [3]: STDIAL [+O–H4]
- identified pI metabolites [4]: all but the desaturated metabolites were formed
- extent of pI transformation / metabolite formation [4]: comparable to human microsomes

SMILES: C[C@@H]1CC[C@H]2C(C)(C)[C@H](O)CC[C@]2(C)[C@@]12Cc1c(O)cc3c(c1O2)CNC3=O [STLAC, stachybotrylactam]
- main pI metabolite [3]: oxidized metabolites ([+O])
- identified pI metabolites [4]: all but the desaturated metabolites were formed
- extent of pI transformation / metabolite formation [4]: comparable to human microsomes
